From patent US20260354380A1, “PYRAZOLO PESTICIDAL COMPOUNDS” (BASF SE, priority 2022, published 2026)

Key:
Assay type in all cases: in vivo
Heliothis virescens = assay: Action on Tobacco Budworm (Heliothis virescens); conditions: 800 ppm; egg and larval mortality; 5 days
Protocol: Example B5: Action on Tobacco Budworm (Heliothis virescens)
For evaluating control of tobacco budworm (Heliothis virescens) the test unit consisted of 96-well-microtiter plates containing an insect diet and 15-25 H. virescens eggs.
The compounds were formulated using a solution containing 75% v/v water and 25% v/v DMSO. Different concentrations of formulated compounds were sprayed onto the insect diet at 10 μl, using a custom-built micro atomizer, at two replications.
After application, microtiter plates were incubated at about 28±1 °C and about 80±5% relative humidity for 5 days. Egg and larval mortality were then visually assessed.

Plutella xylostella = assay: Action on Diamond Back Moth (Plutella xylostella), cabbage leaf dip, 3rd instar larvae; conditions: 300 ppm; 3rd instar larvae; 72 hours after treatment
Protocol: Example B6: Action on Diamond Back Moth (Plutella xylostella)
The active compound is dissolved at the desired concentration in a mixture of 1:1 (v/v) distilled water:acetone. Surfactant (Kinetic® HV) is added at a rate of 0.01% (v/v). The test solution is prepared at the day of use.
Leaves of cabbage were dipped in test solution and air-dried. Treated leaves were placed in petri dishes lined with moist filter paper and inoculated with ten 3rd instar larvae. Mortality was recorded 72 hours after treatment. Feeding damages were also recorded using a scale of 0-100%.
(§1) Compounds disclosed in the document WO2021013561 were prepared according to procedures described therein and their pesticidal activities were determined by procedure analogues to the procedures as described above in examples B6 and B7.

Spodoptera eridania = assay: Action on Southern Armyworm (Spodoptera eridania), 2nd Instar Larvae; conditions: 300 ppm; 2nd instar larvae; 4 days after treatment
Protocol: Example B7: Action on Southern Armyworm (Spodoptera eridania), 2nd Instar Larvae
The active compounds were formulated by a Tecan liquid handler in 100% cyclohexanone as a 10,000 ppm solution supplied in tubes. The 10,000 ppm solution was serially diluted in 100% cyclohexanone to make interim solutions. These served as stock solutions for which final dilutions were made by the Tecan in 50% acetone: 50% water (v/v) into 10 or 20 ml glass vials. A nonionic surfactant (Kinetic®) was included in the solution at a volume of 0.01% (v/v). The vials were then inserted into an automated electrostatic sprayer equipped with an atomizing nozzle for application to plants/insects.
Lima bean plants (variety Sieva) were grown 2 plants to a pot and selected for treatment at the 1st true leaf stage. Test solutions were sprayed onto the foliage by an automated electrostatic plant sprayer equipped with an atomizing spray nozzle. The plants were dried in the sprayer fume hood and then removed from the sprayer. Each pot was placed into perforated plastic bags with a zip closure. About 10 to 11 armyworm larvae were placed into the bag and the bags zipped closed. Test plants were maintained in a growth room at about 25 °C and about 20-40% relative humidity for 4 days, avoiding direct exposure to fluorescent light (24 hour photoperiod) to prevent trapping of heat inside the bags. Mortality and reduced feeding were assessed 4 days after treatment, compared to untreated control plants.
as §1

Anthonomus grandis = assay: Action on Boll Weevil (Anthonomus grandis); conditions: 800 ppm; egg and larval mortality; 5 days
Protocol: Example B3: Action on Boll Weevil (Anthonomus grandis)
For evaluating control of boll weevil (Anthonomus grandis) the test unit consisted of 96-well-microtiter plates containing an insect diet and 5-10 A. grandis eggs.
The compounds were formulated using a solution containing 75% (v/v) water and 25% (v/v) DMSO. Different concentrations of formulated compounds were sprayed onto the insect diet at 5 μl, using a custom-built micro atomizer, at two replications.
After application, microtiter plates were incubated at about 25±1 °C and about 75±5% relative humidity for 5 days. Egg and larval mortality were then visually assessed.

Aedes aegypti = assay: whole plant or invertebrate; conditions: 800 ppm; larvae; 2 days
Protocol: Example B1: Action on Yellow Fever Mosquito (Aedes aegypti)
For evaluating control of yellow fever mosquito (Aedes aegypti) the test unit consisted of 96-well-microtiter plates containing 200 μl of tap water per well and 5-15 freshly hatched A. aegypti larvae.
The active compounds or mixtures were formulated using a solution containing 75% (v/V) water and 25% (v/v) DMSO. Different concentrations of formulated compounds or mixtures were sprayed onto the insect diet at 2.5 μl, using a custom-built micro atomizer, at two replications. For experimental mixtures in these tests identical volumes of both mixing partners at the desired concentrations respectively, were mixed together.
After application, microtiter plates were incubated at 28±1 °C, 80±5% RH for 2 days. Larval mortality was then visually assessed.

SMILES | mortality in comparison with untreated controls (Heliothis virescens) | mortality in comparison with untreated controls (Plutella xylostella) | mortality in comparison with untreated controls (Spodoptera eridania) | mortality in comparison with untreated controls (Anthonomus grandis) | mortality in comparison with untreated controls (Aedes aegypti)
CCOc1ccc(C(=O)Nc2cn(-c3ccc(NC(=O)N=C4SCC(=O)N4c4cc(C)ccc4C(C)C)cc3)nc2C)cc1 [Example C-85] | at least 75% | at least 75% | at least 75% | – | –
Cc1ccc(C(C)C)c(N2C(=O)CSC2=NC(=O)Nc2ccc(-n3cc(NC(=O)c4ccc(S(C)(=O)=O)cc4F)c(C)n3)cc2)c1 [Example C-91] | at least 75% | at least 75% | at least 75% | at least 75% | –
CSc1ccc(C(=O)Nc2cn(-c3ccc(NC(=O)N=C4SCC(=O)N4c4cc(C)ccc4C(C)C)cc3)nc2C)cc1 [Example C-83] | at least 75% | at least 75% | – | at least 75% | at least 50%
Cc1ccc(C(C)C)c(N2C(=O)CSC2=NC(=O)Nc2ccc(-n3cc(NC(=O)c4ccc(C5(F)COC5)cc4)c(C)n3)cc2)c1 [Example C-77] | at least 75% | at least 75% | – | at least 75% | –
Cc1ccc(C(C)C)c(N2C(=O)CSC2=NC(=O)Nc2ccc(-n3cc(NC(=O)c4ccc(C5(C)COC5)cc4)c(C)n3)cc2)c1 [Example C-92] | at least 75% | at least 75% | – | at least 75% | –
COC(C)(C)c1ccc(C(=O)Nc2cn(-c3ccc(NC(=O)N=C4SCC(=O)N4c4cc(C)ccc4C(C)C)cc3)nc2C)cc1 [Example C-61] | at least 75% | at least 75% | – | – | –
Cc1ccc(C(C)C)c(N2C(=O)CSC2=NC(=O)Nc2ccc(-n3cc(NC(=O)c4ccc(C5(C#N)CC5)cc4)c(C)n3)cc2)c1 [Example C-86] | at least 75% | at least 75% | at least 75% | – | –
C#CCOc1ccc(C(=O)Nc2cn(-c3ccc(NC(=O)N=C4SCC(=O)N4c4cc(C)ccc4C(C)C)cc3)nc2C)cc1 [Example C-67] | at least 75% | at least 75% | at least 75% | – | at least 50%
Cc1ccc(C(C)C)c(N2C(=O)CSC2=NC(=O)Nc2ccc(-n3cc(NC(=O)c4ccc(Cl)cc4Cl)c(C)n3)cc2Cl)c1 [Example C-132] | – | – | at least 75% | – | –
Cc1ccc(C(C)C)c(N2C(=O)CSC2=NC(=O)Nc2ccc(-n3cc(NC(=O)c4ccc(N(C)C)cc4)c(C)n3)cc2)c1 [Example C-75] | at least 75% | at least 75% | at least 75% | at least 75% | –
C=Cc1ccc(C(=O)Nc2cn(-c3ccc(NC(=O)N=C4SCC(=O)N4c4cc(C)ccc4C(C)C)cc3)nc2C)cc1 [Example C-87] | at least 75% | at least 75% | – | at least 75% | at least 50%
Cc1ccc(C(C)C)c(N2C(=O)CS/C2=N\C(=O)Nc2ccc(-n3cc(NC(=O)c4ccc(C#N)cc4)c(C)n3)cc2)c1 [Example C-33] | at least 75% | at least 75% | at least 75% | at least 75% | –
Cc1ccc(C(C)C)c(N2C(=O)CSC2=NC(=O)Nc2ccc(-n3cc(NC(=O)c4ccc(CC#N)cc4)c(C)n3)cc2)c1 [Example C-78] | at least 75% | at least 75% | at least 75% | at least 75% | –
CCc1ccc(C(=O)Nc2cn(-c3ccc(NC(=O)N=C4SCC(=O)N4c4cc(C)ccc4C(C)C)cc3)nc2C)cc1 [Example C-80] | at least 75% | at least 75% | – | at least 75% | at least 50%
Cc1ccc(C(C)C)c(N2C(=O)CSC2=NC(=O)Nc2ccc(-n3cc(NC(=O)c4ccc(OC(F)(F)F)cc4)c(C)n3)cc2Cl)c1 [Example C-131] | – | – | at least 75% | – | –
Cc1ccc(C(C)C)c(N2C(=O)CSC2=NC(=O)Nc2ccc(-n3cc(NC(=O)c4ccc(C#N)nc4)c(C)n3)cc2)c1 [Example C-90] | – | at least 75% | – | at least 75% | –
Cc1ccc(C(C)C)c(N2C(=O)CSC2=NC(=O)Nc2ccc(-n3nc(C)c(NC(=O)c4ccc(F)cc4)c3C)cc2Cl)c1 [Example C-124] | – | – | at least 75% | – | –
Cc1ccc(C(C)C)c(N2C(=O)CSC2=NC(=O)Nc2ccc(-n3cc(NC(=O)c4ccc(C5CC5(Cl)Cl)cc4)c(C)n3)cc2)c1 (racemic) [Example C-89] | at least 75% | at least 75% | at least 75% | – | –
Cc1ccc(C(C)C)c(N2C(=O)CSC2=NC(=O)Nc2ccc(-n3cc(NC(=O)c4ccc(OCC#N)cc4)c(C)n3)cc2)c1 [Example C-76] | at least 75% | at least 75% | at least 75% | at least 75% | –
Cc1ccc(C(C)C)c(N2C(=O)CSC2=NC(=O)Nc2ccc(-n3cc(NC(=O)c4ccc(C#CC5CC5)cc4)c(C)n3)cc2)c1 [Example C-72] | at least 75% | – | – | – | –
Cc1ccc(C(C)C)c(N2C(=O)CSC2=NC(=O)Nc2ccc(-n3cc(NC(=O)c4cnc(C#N)nc4)c(C)n3)cc2)c1 [Example C-84] | – | at least 75% | – | – | –
Cc1ccc(C(C)C)c(N/C(=N/C(=O)Nc2ccc(-n3cc(NC(=O)c4ccc(OC(F)(F)F)cc4)c(C)n3)cc2)SCOC(=O)C(C)C)c1 [Example C-129] | at least 75% | at least 75% | – | at least 75% | at least 50%
Cc1ccc(C(C)C)c(N2C(=O)CSC2=NC(=O)Nc2ccc(-n3cc(NC(=O)c4ccc(C(C)C)cc4)c(C)n3)cc2)c1 [Example C-70] | at least 75% | at least 75% | – | – | at least 50%
CC(=O)c1ccc(C(=O)Nc2cn(-c3ccc(NC(=O)N=C4SCC(=O)N4c4cc(C)ccc4C(C)C)cc3)nc2C)cc1 [Example C-69] | – | – | at least 75% | – | –
